Counter-ions that a name gives are not always drawn. Like-named read-outs stand apart in the source and are kept apart here.

The target of data set [1] is human recombinant trypsin (r-h trypsin) (Homo sapiens (Human), UniProt P07477). In words: Inhibitory activity of trypsin enzyme (human recombinant trypsin, BZiPAR fluorescent substrate). The format is biochemical. Conditions: human recombinant trypsin 0.088 μg/mL, 30 minutes at room temperature. As to the method:
(§1) 1. Inhibitory Activity of Trypsin Enzyme in Humans and Mice
(§2) In the experiment, human recombinant trypsin (r-h trypsin; manufactured by WAKO, cat. #206-17171) and mouse trypsin (m-trypsin; purified from the mouse small intestine contents by the present Company) were used.
(§3) The outline of the measurement method is shown below.
(§4) The compound was dissolved in dimethyl sulfoxide (DMSO), and diluted to an arbitrary concentration (A). A was 100-fold diluted with a buffer (0.1 M Tris (pH 8.0), 0.15 M NaCl, 10 mM CaCl2, 0.05% Brij38) (B). The r-h trypsin was diluted with a buffer to 0.088 μg/mL, and the m-trypsin was diluted with a buffer to 1/50 (C). […] The substrate solution of a substrate for the enzyme reaction, BZiPAR, (Rhodamine Reference Substrate) was diluted with a buffer to 5 μmol/L (D). B; 5 μL, C; 5 μL, and D; 10 μL were added to a 384-plate, and incubated at room temperature for 30 minutes. The fluorescent signals were detected with Ex/Em=497/520 using Tecan Safire Fluorometer. […] Based on the obtained inhibitory rates, IC50 values (nM) were calculated from the non-linear regression. The test was carried out in the same manner, using camostat as a control compound.
(§5) Ex in the table represents the Example No. as denoted below.

Data set [2] has as its target mouse trypsin (m-trypsin). Nature of the data set: Inhibitory activity of trypsin enzyme (mouse trypsin purified from small intestine contents, BZiPAR fluorescent substrate). Conditions: mouse trypsin diluted 1/50, BZiPAR substrate, 30 minutes at room temperature. Type of data set: biochemical.
Source text: as §1, §2
The method to extract the trypsin from the mouse small intestine is shown below.
The small intestine contents and the gastrointestinal tract of 10 mice were suspended in PBS using Polytron and subjected to centrifugation at 15,000×g several times. The supernatant was mixed at 4° C. for 16 hours with a Benzamidine Sepharose 4 Fast Flow Resin (GE Healthcare: #17-5123-10). After washing the resin with PBS, m-trypsin was eluted with a glycine elution buffer (pH 3.0).
as §3, §4, §5

The next data set concerns ICR mice. In words: Increasing study of fecal protein concentration in mice. The format is in vivo. Conditions: Mus musculus, 5 mg/kg oral, feces collected 3 to 9 hours after, control = 1, read-out: protein increasing activity in feces, fold vs control. The protocol: 2. Increasing Study of Fecal Protein Concentration in Mice
For the experiment, 6-weeks old ICR mice (male) were used, and the experiment was carried out in five per group. After fasting the mice for 15 hours, the control group was forcibly orally administered with a 0.5% methyl cellulose (MC) solution, and the test drug group was forcibly orally administered (5 mg/kg) with a solution or suspension obtained by dissolving or suspending the compound in the 0.5% MC solution. The fasting was stopped immediately thereafter, free feeding (CE-2) started and then the feces were collected from after 3 hours to after 9 hours. All of the obtained feces were dissolved and suspended in 6 mL of distilled water, and centrifuged for 10 minutes at 3000 rpm. The protein concentration in the supernatant was measured by a Bradford method, and the amount of the protein in 1 g of feces was calculated by dividing the protein concentration in the feces by the total weight of feces. Further, the efficacy was investigated from the ratio to the control. For the compounds that were evaluated multiple times, the average values were calculated.
For some representative compounds, the protein increasing activities in feces are shown in Table 2, assuming a value for the control as 1. Ex in the table represents the Example No. as denoted below of the test compound.

For the compound `CC(C)(Oc1ccc(C[C@H](NC(=O)CCc2ccc(OC(=O)c3ccc(NC(=N)N)cc3)cc2Cl)C(=O)O)cc1)C(=O)O` [Example 96], the IC50 in data set [1] stood at 0.22 nM; in data set [2] it was 0.46 nM. Besides, in the data set with ICR mice, the response vs control in vivo at 5 mg/kg was determined as 202%.

`CC(C(=O)N(CC(=O)O)Cc1cccc(C(=O)O)c1)c1ccc(OC(=O)c2ccc(NC(=N)N)cc2)cc1Cl` (centres unmarked) [Example 5, 3-{[(2-{4-[(4-carbamimidamidobenzoyl)oxy]-2-chlorophenyl}propanoyl)(carboxymethyl)amino]methyl}benzoic acid] registered a melting point of 208 °C.

As for `N=C(N)Nc1ccc(C(=O)Oc2ccc3nc(C(=O)N(CC(=O)O)Cc4cccc(C(=O)O)c4)ccc3c2)cc1` [Example 4, 3-{[({6-[(4-carbamimidamidobenzoyl)oxy]quinolin-2-yl}carbonyl)(carboxymethyl)amino]methyl}benzoic acid], the melting point was 255 °C.

`N=C(N)Nc1ccc(C(=O)Oc2ccc(CCC(=O)NCc3ccccc3C(=O)O)c(Cl)c2)cc1` [Example 52]: the IC50 was found to be 0.3 nM in data set [1] and 0.39 nM in data set [2]. In addition, the response vs control in vivo at 5 mg/kg in the data set with ICR mice came out at 182%.

Regarding `N=C(N)Nc1ccc(C(=O)Oc2ccc(CCC(=O)N(CC(=O)O)Cc3cc(C(=O)O)cc(C(=O)O)c3)c(Cl)c2)cc1` [Example 64], the IC50 in data set [1] was determined as 0.37 nM; in data set [2], 0.7 nM. Further, the response vs control in vivo at 5 mg/kg with ICR mice is 198%.

Regarding `N=C(N)Nc1ccc(C(=O)Oc2ccc3nc(C(=O)N(CC(=O)O)Cc4ccc(CC(=O)O)cc4)ccc3c2)cc1` [Example 113], the response vs control in vivo at 5 mg/kg with ICR mice (po, 9 h) was determined as 193%.

Regarding `C[C@H](C(=O)O)N(Cc1csc(C(=O)O)c1)C(=O)c1ccc2cc(OC(=O)c3ccc(NC(=N)N)cc3)ccc2n1` [Example 102], the figures for the 50% inhibitory concentration (IC50) in data set [1] and in data set [2] were 0.29 nM and 0.3 nM, respectively. In addition, in the data set with ICR mice, the response vs control in vivo at 5 mg/kg is 231%.

As to `N=C(N)Nc1ccc(C(=O)Oc2ccc(CC(=O)N[C@@H](Cc3ccc(OCC(=O)O)cc3)C(=O)O)c(Cl)c2)cc1` [Example 56], the IC50 in data set [1] was 0.88 nM; in data set [2], 0.64 nM. In addition, the response vs control in vivo at 5 mg/kg in the data set with ICR mice stood at 202%.

Turning to `N=C(N)Nc1ccc(C(=O)Oc2ccc(CCC(=O)N(CC(=O)O)Cc3cccc(C(=O)O)c3)c(Cl)c2)cc1` [Example 36], the half-inhibitory concentration (IC50) was 0.43 nM in data set [1] and 0.38 nM in data set [2]. For the same compound, the response vs control in vivo at 5 mg/kg in the data set with ICR mice was determined as 192%.

As for `N=C(N)Nc1ccc(C(=O)Oc2ccc(CCC(=O)N(CC(=O)O)Cc3ccccc3C(=O)O)c(Cl)c2)cc1` [Example 53], the figures for the IC50 in data set [1] and in data set [2] were 0.45 nM and 0.35 nM, respectively. The response vs control in vivo at 5 mg/kg in the data set with ICR mice was found to be 179%.

Regarding `N=C(N)Nc1ccc(C(=O)Oc2ccc(CC(=O)N[C@@H](Cc3ccc(Cl)cc3)C(=O)O)c(Cl)c2)cc1` [Example 15], the response vs control in vivo at 5 mg/kg with ICR mice (po, 9 h) worked out at 167%.

Consider `N=C(N)Nc1ccc(C(=O)Oc2ccc(CCC(=O)N(CC(=O)O)Cc3cccc(CC(=O)O)c3)c(Cl)c2)cc1` [Example 78], for which the IC50 came out at 0.49 nM in data set [1] and 0.39 nM in data set [2]. For the same compound, the response vs control in vivo at 5 mg/kg with ICR mice is 167%.

Regarding `N=C(N)Nc1ccc(C(=O)Oc2ccc(CCC(=O)N(CCC(=O)O)Cc3cccc(C(=O)O)c3)c(Cl)c2)cc1` [Example 45], the half-inhibitory concentration (IC50) in data set [1] came out at 0.57 nM; in data set [2], 0.66 nM. For the same compound, in the data set on ICR mice, the response vs control in vivo at 5 mg/kg was found to be 165%.

Take `N=C(N)Nc1ccc(C(=O)Oc2ccc(CCC(=O)N(CCc3cccc(C(=O)O)c3)CC(=O)O)c(Cl)c2)cc1` [Example 58]: the figures for the IC50 in data set [1] and in data set [2] were 0.73 nM and 0.68 nM, respectively. Moreover, in the data set with ICR mice, the response vs control in vivo at 5 mg/kg was 179%.

For `N=C(N)Nc1ccc(C(=O)Oc2ccc(CCC(=O)N(CC(=O)O)Cc3csc(C(=O)O)c3)c(Cl)c2)cc1` [Example 63], in the data set on ICR mice (po, 9 h), the response vs control in vivo at 5 mg/kg is 184%.

`N=C(N)Nc1ccc(C(=O)Oc2ccc3cc(C(=O)N[C@@H](Cc4ccccc4)C(=O)O)[nH]c3c2)cc1` [Example 119]: the response vs control in vivo at 5 mg/kg with ICR mice (po, 9 h) turned out to be 139%.

For `N=C(N)Nc1ccc(C(=O)Oc2ccc3nc(C(=O)N(CC(=O)O)Cc4csc(C(=O)O)c4)ccc3c2)cc1` [Example 80], the 50% inhibitory concentration (IC50) in data set [1] stood at 0.21 nM; in data set [2], 0.3 nM. For the same compound, the response vs control in vivo at 5 mg/kg in the data set on ICR mice came out at 189%.

On to `N=C(N)Nc1ccc(C(=O)Oc2ccc(CC(=O)N[C@@H](Cc3ccc(C(=O)O)cc3)C(=O)O)c(Cl)c2)cc1` [Example 13], for which the IC50 amounted to 0.91 nM in data set [1] and 0.84 nM in data set [2]. In addition, in the data set with ICR mice, the response vs control in vivo at 5 mg/kg stood at 185%.

In the case of `CN(C(=O)N(CC(=O)O)Cc1cccc(C(=O)O)c1)c1ccc(OC(=O)c2ccc(NC(=N)N)cc2)cc1Cl` [Example 61], the concentration for half-maximal inhibition (IC50) in data set [1] worked out at 0.23 nM; in data set [2] it was 0.14 nM. For the same compound, the response vs control in vivo at 5 mg/kg in the data set with ICR mice amounted to 167%.

Take `N=C(N)Nc1ccc(C(=O)Oc2cc(F)c(CC(=O)N[C@@H](Cc3ccccc3)C(=O)O)c(F)c2)cc1` [Example 24]: the results for the IC50 in data set [1] and in data set [2] were 0.21 nM and 0.17 nM, respectively.

Regarding `CN(C(=O)N(CC(=O)O)Cc1csc(C(=O)O)c1)c1ccc(OC(=O)c2ccc(NC(=N)N)cc2)cc1Cl` [Example 111], the IC50 in data set [1] worked out at 0.54 nM; in data set [2], 0.44 nM. Further, the response vs control in vivo at 5 mg/kg with ICR mice is 201%.

In the case of `N=C(N)Nc1ccc(C(=O)Oc2ccc(CCN(CC(=O)O)Cc3cccc(C(=O)O)c3)c(Cl)c2)cc1` [Example 65], the IC50 in data set [1] came to 0.4 nM; in data set [2], 0.45 nM.

`N=C(N)Nc1ccc(C(=O)Oc2ccc(CCC(=O)N(CC(=O)O)c3cccc(CC(=O)O)c3)c(Cl)c2)cc1` [Example 41]: in the data set with ICR mice (po, 9 h), the response vs control in vivo at 5 mg/kg came out at 177%.

For `N=C(N)Nc1ccc(C(=O)Oc2ccc3nc(C(=O)N[C@@H](Cc4ccc(OCC(=O)O)cc4)C(=O)O)ccc3c2)cc1` [Example 71], the IC50 came to 0.18 nM in data set [1] and 0.23 nM in data set [2].

With `CC(C)(Oc1ccc(C[C@H](NC(=O)Cc2ccc(OC(=O)c3ccc(NC(=N)N)cc3)cc2Cl)C(=O)O)cc1)C(=O)O` [Example 95], the values for the IC50 in data set [1] and in data set [2] were 0.66 nM and 0.64 nM, respectively. For the same compound, the response vs control in vivo at 5 mg/kg in the data set with ICR mice came to 188%.

Regarding `N=C(N)Nc1ccc(C(=O)Oc2ccc3nc(C(=O)N(CC(=O)O)Cc4cccc(C(=O)O)c4)ccc3c2)cc1` [Example 59], the IC50 in data set [1] worked out at 0.27 nM; in data set [2], 0.31 nM. Moreover, in the data set on ICR mice, the response vs control in vivo at 5 mg/kg came out at 217%.

Regarding `N=C(N)Nc1ccc(C(=O)Oc2ccc(CCC(=O)N(CC(=O)O)Cc3cccc(C(=O)O)c3)c(Cl)c2)cc1` (as salt: mesylate) [Example 3, 3-{[(3-{4-[(4-carbamimidamidobenzoyl)oxy]-2-chlorophenyl}propanoyl)(carboxymethyl)amino]methyl}benzoic acid mesylate], the melting point came out at 197 °C.

For `N=C(N)Nc1ccc(C(=O)Oc2ccc(CCCC(=O)N(CC(=O)O)Cc3cccc(C(=O)O)c3)c(Cl)c2)cc1` [Example 51], the half-inhibitory concentration (IC50) in data set [1] was 0.46 nM; in data set [2] it was 0.47 nM.

As to `N=C(N)Nc1ccc(C(=O)Oc2ccc(CC(=O)N[C@@H](Cc3ccc(C(F)(F)F)cc3)C(=O)O)c(Cl)c2)cc1` [Example 31], the IC50 was 0.31 nM in data set [1] and 0.34 nM in data set [2].

For `N=C(N)Nc1ccc(C(=O)Oc2ccc(CCN(CC(=O)O)C(=O)Cc3cccc(C(=O)O)c3)c(Cl)c2)cc1` [Example 66], the values for the 50% inhibitory concentration (IC50) in data set [1] and in data set [2] were 0.35 nM and 0.45 nM, respectively.

As to `N=C(N)Nc1ccc(C(=O)Oc2ccc(CC(=O)N[C@@H](Cc3ccc(O)cc3)C(=O)O)c(Cl)c2)cc1` [Example 1, N-({4-[(4-carbamimidamidobenzoyl)oxy]-2-chlorophenyl}acetyl)-L-tyrosine hydrochloride], the IC50 in data set [1] turned out to be 0.17 nM; in data set [2], 0.19 nM.

For the compound `COc1ccc(C[C@H](NC(=O)Cc2ccc(OC(=O)c3ccc(NC(=N)N)cc3)cc2Cl)C(=O)O)cc1` [Example 16], the response vs control in vivo at 5 mg/kg in the data set on ICR mice (po, 9 h) was determined as 170%.

Usually IC50 stands for the midpoint of a concentration-inhibition curve. The term melting point denotes the temperature of the solid-liquid transition.
